In article PMC11355573, “A New Renieramycin T Right-Half Analog as a Small Molecule Degrader of STAT3” (Marine Drugs, 2024):

Experiments:
Format in all cases: cell-based, human
STAT3 mRNA = STAT3 mRNA by Real-time qPCR; settings: H460, 0–2.5 μM, 8 h
Description: To explore whether the reduction in total STAT3 protein after DH_31 treatments (as shown in Figure 5B–E) occurs at the mRNA or protein levels, we first investigated mRNA levels using Real-time qPCR. […] To evaluate whether DH_31 affects STAT3 stability, pretreatment with MG132, a potent selective proteasome inhibitor, was performed. H460 cells were pretreated with or without MG132 (10 μM) for 1 h and then cells were either treated with DH_31 for 6 h or left untreated. […] The proteasome can recognize and degrade protein targets that are conjugated by single or poly-ubiquitin molecules. To investigate the ubiquitination level of STAT3 with DH_31 treatments, the ubiquitination level was evaluated using immunoprecipitation and Western blot analysis of the STAT3–ubiquitin complex in the lung cancer cells treated with DH_31 and in untreated cells.
Quantitative Real-time PCR was performed to determine the effect of DH_31 on mRNA levels of STAT3 and EMT-related genes. H460 cells (4.0 × 10^5 cells per well) were seeded in 6-well plates. Following overnight incubation, the cells were treated with different concentrations of DH_31 (0–2.5 μM)) for 8 h at 37 °C. After treatment, total RNA was isolated using the RNeasy kit (Qiagen, Germany) and subsequently subjected to cDNA synthesis using qScript cDNA Supermix (Quanta bio, Beverly, MA, USA), following the manufacturers’ protocols. […]

H460 cells = assay: Wound healing assay (migration); settings: H460, 1 and 2.5 μM, at 48 h and 72 h, vs untreated cells
Description: Wound healing assay was conducted to assess the effects of DH_31 on migration. H292 and H460 cells (4.0–4.2 × 10^4 cells per well) were seeded in 96-well plates. Following overnight incubation, wounds were created by scraping the monolayer cells with a 10 μL pipette tip, and non-adherent cells were washed off with PBS. The cells were treated with different concentrations of DH_31 (0–2.5 μM) in the growth medium containing 1% FBS for 72 h at 37 °C. […] The scratched area was analyzed by using ImageJ™ software (Image J 1.52a, Rasband, W., National Institutes of Health, Bethesda, MD, USA). Cell migration was determined by the rate of cells moving towards the scratched area.

detached H460 cells = assay: Anoikis assay (viability under detachment, MTT); settings: H460, 1 and 2.5 μM, at 12 h (p < 0.01) and 24 h (p < 0.001)
Description: Anoikis, a detachment-induced apoptosis, is a mechanism to prevent metastasis, so resistance to anoikis enhances the potential of metastasis. To confirm that DH_31 induces anoikis, the detached H460 cells were treated with 1 and 2.5 μM of DH_31 for 6, 12, and 24 h.
MTT assay was conducted to ascertain cell viability after treatment with DH-31 under detachment conditions. H292 and H460 cells (5.0 × 10^3 cells per well) were seeded in ultra-low attachment 96-well plates and treated with different concentrations of DH_31 (0–2.5 μM) at 37 °C. At 0, 6, 12, and 24 h of incubation, the cell suspensions were transferred onto regular cell culture plates in growth medium to facilitate attachment. After 3 h, images of cells that survived anoikis and recovered their adherent growth ability were captured with a 10 × objective using an inverted microscope (Olympus IX51 with DP70; OlympusbAmerica Inc., Center valley, PA, USA). Then, the medium in each well was removed and replaced with 100 µL of MTT solution. Cell viability was assessed using MTT assay, following the manufacturers’ protocols. Anoikis resistance was calculated as a percentage compared with the control.

[1] = test system: ZO1, Slug, Snail, N-cadherin, Vimentin mRNA in H460 cells; assay: mRNA of EMT markers by Real-time qPCR; settings: H460, 1 μM and 2.5 µM
Description: Therefore, the effect of DH_31 on targeting, the DNA-binding domain of STAT3, may represent an impact on downstream targets at the transcriptional level (Figure 8A). The expression levels of ZO1, Slug, Snail, N-cadherin, and Vimentin were analyzed using Real-time qPCR.
Quantitative Real-time PCR was performed to determine the effect of DH_31 on mRNA levels of STAT3 and EMT-related genes. H460 cells (4.0 × 10^5 cells per well) were seeded in 6-well plates. Following overnight incubation, the cells were treated with different concentrations of DH_31 (0–2.5 μM)) for 8 h at 37 °C. After treatment, total RNA was isolated using the RNeasy kit (Qiagen, Germany) and subsequently subjected to cDNA synthesis using qScript cDNA Supermix (Quanta bio, Beverly, MA, USA), following the manufacturers’ protocols. Real-time qPCR was performed using Luna Universal qPCR Master Mix (NEB, Ipswich, MA, USA) and the CFX 96 Real-time PCR system (Bio-Rad, Hercules, CA, USA). The expression of each cDNA was normalized to that of β-actin, and the comparative Ct method was used to obtain relative expression levels. The primers used for Real-time PCR are shown in the in the Supporting Information, Table S1. The list of primers.

## COc1c(C)cc2c(c1O)[C@@H]1CN(Cc3ccc4ccccc4c3)[C@@H](C#N)[C@H](C2)N1C [DH_31, (1R,4R,5S)-10-hydroxy-9-methoxy-8,11-dimethyl-3-(naphthalen-2-ylmethyl)-1,2,3,4,5,6-hexahydro-1,5-epiminobenzo[d]azocine-4-carbonitrile]
STAT3 mRNA
  mRNA expression of STAT3: did not change significantly
H460 cells
  cell migration across the wound space: significantly decreased
Detached H460 cells
  cell viability of detached cells (anoikis): significant decrease
[1]; 8 h (p < 0.01)
  ZO1 mRNA expression: significant increase
[1]; 8 h (p < 0.05)
  N-cadherin mRNA expression: significant reduction
  Slug mRNA expression: significant reduction
  Snail mRNA expression: significant reduction
  Vimentin mRNA expression: significant reduction
